Data: PMC6530635, “A Novel Single-Site Mutation in the Catalytic Domain of Protoporphyrinogen Oxidase IX (PPO) Confers Resistance to PPO-Inhibiting Herbicides” (Frontiers in Plant Science, 2019)

Assays:
Type in all cases: biochemical
[1] = system: recombinant Amaranthus tuberculatus PPO2 G399A
[2] = system: recombinant Amaranthus tuberculatus PPO2 ΔG210
[3] = system: recombinant Amaranthus tuberculatus PPO2 R128L

| SMILES | Resistance factor G399A (IC50 mutant / IC50 sensitive PPO2) [1] | Resistance factor ΔG210 (IC50 mutant / IC50 sensitive PPO2) [2] | Resistance factor R128L (IC50 mutant / IC50 sensitive PPO2) [3] |
| --- | --- | --- | --- |
| O=C(O)c1cc(Oc2ccc(C(F)(F)F)cc2Cl)ccc1[N+](=O)[O-] [Acifluorfen] | >541 | >541 | >541 |
| C=CCOC(=O)C(C)(C)OC(=O)c1cc(-n2c(=O)cc(C(F)(F)F)n(C)c2=O)ccc1Cl [Butafenacil] | 741 | 17578 | 23 |
| Cc1nn(-c2cc(CC(Cl)C(=O)O)c(Cl)cc2F)c(=O)n1C(F)F (stereo not shown) [Carfentrazone] | 116 | 3957 | 3 |
| C#CCN1C(=O)COc2cc(F)c(N3C(=O)C4=C(CCCC4)C3=O)cc21 [Flumioxazin] | 868 | 3157 | 2631 |
| COC(=O)CSc1cc(/N=c2\sc(=O)n3n2CCCC3)c(F)cc1Cl [Fluthiacet-methyl] | 3567 | 94 | 4 |
| CCOC(=O)C(C)OC(=O)c1cc(Oc2ccc(C(F)(F)F)cc2Cl)ccc1[N+](=O)[O-] (stereo not shown) [Lactofen] | 28167 | 18271 | 2812 |
| CC(C)Oc1cc(-n2nc(C(C)(C)C)oc2=O)c(Cl)cc1Cl [Oxadiazon] | 285 | 151 | 1 |
| CCOc1cc(Oc2ccc(C(F)(F)F)cc2Cl)ccc1[N+](=O)[O-] [Oxyfluorfen] | 18548 | 982 | 74 |
| C#CCN(C)c1c(C#N)cnn1-c1nn2c(c1Cl)CCCC2 [Pyraclonil] | 799 | 782 | 0 |
| CCOC(=O)COc1cc(-c2nn(C)c(OC(F)F)c2Cl)c(F)cc1Cl [Pyraflufen-ethyl] | 11816 | 1083 | 1 |
| Cc1nn(-c2cc(NS(C)(=O)=O)c(Cl)cc2Cl)c(=O)n1C(F)F [Sulfentrazone] | 282 |  |  |
